Measurements from US8269019B2, “Inhibitors” (Probiodrug AG, priority 2010, dated 2012).
pIC50, pKi: −log10 of the molar value.

Target: hQC (Homo sapiens, UniProt Q16769)
Experiment: QC inhibitor assay (hQC inhibition, Ki and IC50)
Type: biochemical
Protocol: All measurements were performed with a BioAssay Reader HTS-7000Plus for microplates (Perkin Elmer) at 30° C. QC activity was evaluated fluorometrically using H-Gln-βNA. The samples consisted of 0.2 mM fluorogenic substrate, 0.25 U pyroglutamyl aminopeptidase (Unizyme, Hørsholm, Denmark) in 0.2 M Tris/HCl, pH 8.0 containing 20 mM EDTA and an appropriately diluted aliquot of QC in a final volume of 250 μl. Excitation/emission wavelengths were 320/410 nm. The assay reactions were initiated by addition of glutaminyl cyclase. QC activity was determined from a standard curve of β-naphthylamine under assay conditions. One unit is defined as the amount of QC catalyzing the formation of 1 μmol pGlu-βNA from H-Gln-βNA per minute under the described conditions.
In a second fluorometric assay, QC was activity determined using H-Gln-AMC as substrate. Reactions were carried out at 30° C. utilizing the NOVOStar reader for microplates (BMG labtechnologies). The samples consisted of varying concentrations of the fluorogenic substrate, 0.1 U pyroglutamyl aminopeptidase (Qiagen) in 0.05 M Tris/HCl, pH 8.0 containing 5 mM EDTA and an appropriately diluted aliquot of QC in a final volume of 250 μl. Excitation/emission wavelengths were 380/460 nm. The assay reactions were initiated by addition of glutaminyl cyclase. QC activity was determined from a standard curve of 7-amino-4-methylcoumarin under assay conditions. The kinetic data were evaluated using GraFit sofware.
This novel assay was used to determine the kinetic parameters for most of the QC substrates. QC activity was analyzed spectrophotometrically using a continuous method, that was derived by adapting a previous discontinuous assay (Bateman, R. C. J. 1989 J Neurosci Methods 30, 23-28) utilizing glutamate dehydrogenase as auxiliary enzyme. Samples consisted of the respective QC substrate, 0.3 mM NADH, 14 mM α-Ketoglutaric acid and 30 U/ml glutamate dehydrogenase in a final volume of 250 μl. Reactions were started by addition of QC and persued by monitoring of the decrease in absorbance at 340 nm for 8-15 min.
The initial velocities were evaluated and the enzymatic activity was determined from a standard curve of ammonia under assay conditions. All samples were measured at 30° C., using either the SPECTRAFIuor Plus or the Sunrise (both from TECAN) reader for microplates. Kinetic data was evaluated using GraFit software.
For inhibitor testing, the sample composition was the same as described above, except of the putative inhibitory compound added. For a rapid test of QC-inhibition, samples contained 4 mM of the respective inhibitor and a substrate concentration at 1 KM. For detailed investigations of the inhibition and determination of Ki-values, influence of the inhibitor on the auxiliary enzymes was investigated first. In every case, there was no influence on either enzyme detected, thus enabling the reliable determination of the QC inhibition. The inhibitory constant was evaluated by fitting the set of progress curves to the general equation for competitive inhibition using GraFit software.

Chain of hQC (Q16769 29-361): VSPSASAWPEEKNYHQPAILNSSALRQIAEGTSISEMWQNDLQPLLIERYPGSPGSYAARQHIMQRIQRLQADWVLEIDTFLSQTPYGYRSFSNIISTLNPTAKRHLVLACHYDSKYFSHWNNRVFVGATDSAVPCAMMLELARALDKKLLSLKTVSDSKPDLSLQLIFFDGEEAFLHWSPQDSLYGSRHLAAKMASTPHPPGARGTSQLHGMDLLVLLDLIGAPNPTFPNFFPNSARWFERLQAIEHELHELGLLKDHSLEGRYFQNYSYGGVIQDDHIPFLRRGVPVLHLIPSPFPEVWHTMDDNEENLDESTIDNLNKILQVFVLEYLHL

Row | Structure (SMILES) | pIC50 | pKi
1 | COC1=C(c2ccccc2)C(c2cc(F)cc(F)c2F)N(c2ccc3[nH]cnc3c2)C1=O (stereo not drawn) [Example 5, 1-(1H-Benzo[d]imidazol-5-yl)-5-(2,3,5-trifluorophenyl)-3-methoxy-4-phenyl-1H-pyrrol-2(5H)-one] | 6.50 | 7.26
2 | COC1=C(C)C(c2cccc(Cl)c2Cl)N(c2ccc3[nH]cnc3c2)C1=O (stereo not drawn) [Example 17, 1-(1H-Benzo[d]imidazol-6-yl)-5-(2,3-dichlorophenyl)-3-methoxy-4-methyl-1H-pyrrol-2(5H)-one] | 6.25 | 7.33
3 | COC1=C(C)C(c2ccc(C3CCCCC3)cc2)N(c2ccc3nc[nH]c3c2)C1=O (stereo not drawn) [Example 25, 1-(1H-Benzo[d]imidazol-6-yl)-5-(4-cyclohexylphenyl)-3-methoxy-4-methyl-1H-pyrrol-2(5H)-one] | 6.71 | 7.34
4 | COC1=C(C)C(c2ccc(C3CCC(F)(F)CC3)cc2)N(c2ccc3nc[nH]c3c2)C1=O (stereo not drawn) [Example 26, 1-(1H-Benzo[d]imidazol-6-yl)-5-(4-(4,4-difluorocyclohexyl)phenyl)-3-methoxy-4-methyl-1H-pyrrol-2(5H)-one] | 6.53 | 7.44
5 | COC1=C(C)C(c2ccc(C3CCC(N4CCOCC4)CC3)cc2)N(c2ccc3nc[nH]c3c2)C1=O (stereo not drawn) [Example 29, 1-(1H-Benzo[d]imidazol-6-yl)-3-methoxy-4-methyl-5-(4-(4-morpholinocyclo-hexyl)phenyl)-1H-pyrrol-2(5H)-one] | 6.66 | 7.73
6 | COC1=C(C)C(C2CCC(c3ccccc3)CC2)N(c2ccc3nc[nH]c3c2)C1=O (stereo not drawn) [Example 32, 1-(1H-Benzo[d]imidazol-6-yl)-3-methoxy-4-methyl-5-(4-phenylcyclohexyl)-1H-pyrrol-2(5H)-one] | 6.09 | 6.79

These reach a higher pIC50. Values come first.

Row | pIC50 | pKi | Structure (SMILES)
7 | 7.73 | 8.33 | COC1=C(C)[C@H](c2cccc(F)c2F)N(c2ccc3nc[nH]c3c2)C1=O (single isomer, unassigned) [Example 9]
8 | 6.77 | 7.49 | COC1=C(C)[C@@H](c2cccc(F)c2F)N(c2ccc3nc[nH]c3c2)C1=O (single isomer, unassigned) [Example 10]
9 | 6.93 | 7.68 | COC1=C(C)C(c2cccc(F)c2F)N(c2ccc3nc[nH]c3c2)C1=O (stereo not drawn) [Example 8, 1-(1H-Benzo[d]imidazol-6-yl)-5-(2,3-difluorophenyl)-3-methoxy-4-methyl-1H-pyrrol-2(5H)-one]
